Assay results as given in paper PMC12006963, “Application of Deuterium in an M1 Positive Allosteric Modulator Back-Up Program: The Discovery of VU6045422” (ACS Chemical Neuroscience, 2025).
pEC50, pIC50: −log10 of the molar value. Read-outs that look alike come from different tables or passages of the source.

Legend:
rM1 = target: T1, rM1 (Rattus norvegicus, UniProt P08482); experiment: Calcium mobilization, rat M1 (agonist and PAM modes); format: cell-based
T1 sequence (P08482 1-460): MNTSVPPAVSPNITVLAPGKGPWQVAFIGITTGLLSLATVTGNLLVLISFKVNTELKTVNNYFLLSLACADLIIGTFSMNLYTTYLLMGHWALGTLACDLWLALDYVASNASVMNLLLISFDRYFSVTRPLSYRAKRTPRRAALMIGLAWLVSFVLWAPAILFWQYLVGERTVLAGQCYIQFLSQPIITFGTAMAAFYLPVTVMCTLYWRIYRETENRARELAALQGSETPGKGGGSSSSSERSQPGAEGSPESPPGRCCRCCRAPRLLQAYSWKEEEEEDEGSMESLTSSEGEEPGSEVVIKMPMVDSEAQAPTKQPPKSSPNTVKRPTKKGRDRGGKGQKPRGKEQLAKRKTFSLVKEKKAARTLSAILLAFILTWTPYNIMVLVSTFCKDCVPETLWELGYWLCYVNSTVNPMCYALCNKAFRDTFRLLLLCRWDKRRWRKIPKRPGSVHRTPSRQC

CYP 1A2 = target: T2, CYP 1A2 (Homo sapiens, UniProt P05177); experiment: CYP inhibition 1A2; format: in vitro ADME
T2 sequence (P05177 1-516): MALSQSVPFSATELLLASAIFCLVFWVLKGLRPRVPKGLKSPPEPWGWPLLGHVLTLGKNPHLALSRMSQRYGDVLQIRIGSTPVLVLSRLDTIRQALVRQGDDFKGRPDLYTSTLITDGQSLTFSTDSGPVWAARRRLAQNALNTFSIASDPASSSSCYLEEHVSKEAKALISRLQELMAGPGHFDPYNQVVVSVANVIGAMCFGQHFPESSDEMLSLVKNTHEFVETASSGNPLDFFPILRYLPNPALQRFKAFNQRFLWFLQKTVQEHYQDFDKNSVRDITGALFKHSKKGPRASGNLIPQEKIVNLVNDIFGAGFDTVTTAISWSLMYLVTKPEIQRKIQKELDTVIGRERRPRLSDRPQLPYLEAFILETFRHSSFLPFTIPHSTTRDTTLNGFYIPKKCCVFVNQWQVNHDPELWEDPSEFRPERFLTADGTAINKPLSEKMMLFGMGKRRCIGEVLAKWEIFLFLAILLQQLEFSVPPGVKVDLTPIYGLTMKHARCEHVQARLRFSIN
Excerpt: Table 1 Pharmacology and In Vitro DMPK Profiles of M1 PAMs 1, 3, and 5 | column: 1; 3; 5

P-gp (MDR1) = target: T3, P-gp (MDR1) (Homo sapiens, UniProt P08183); experiment: MDCK-MDR1 monolayer permeability and efflux; format: in vitro ADME; parameters: dose or concentration left out as unconfirmed; settings: dog; for Papp at 2 h: MDCK-MDR1; for efflux ratio at 2 h: MDCK-MDR1 efflux ratio, read-out: P-gp ER
T3 construct: host or cells: MDR1-MDCK cell monolayers
T3 sequence (P08183 whole entry): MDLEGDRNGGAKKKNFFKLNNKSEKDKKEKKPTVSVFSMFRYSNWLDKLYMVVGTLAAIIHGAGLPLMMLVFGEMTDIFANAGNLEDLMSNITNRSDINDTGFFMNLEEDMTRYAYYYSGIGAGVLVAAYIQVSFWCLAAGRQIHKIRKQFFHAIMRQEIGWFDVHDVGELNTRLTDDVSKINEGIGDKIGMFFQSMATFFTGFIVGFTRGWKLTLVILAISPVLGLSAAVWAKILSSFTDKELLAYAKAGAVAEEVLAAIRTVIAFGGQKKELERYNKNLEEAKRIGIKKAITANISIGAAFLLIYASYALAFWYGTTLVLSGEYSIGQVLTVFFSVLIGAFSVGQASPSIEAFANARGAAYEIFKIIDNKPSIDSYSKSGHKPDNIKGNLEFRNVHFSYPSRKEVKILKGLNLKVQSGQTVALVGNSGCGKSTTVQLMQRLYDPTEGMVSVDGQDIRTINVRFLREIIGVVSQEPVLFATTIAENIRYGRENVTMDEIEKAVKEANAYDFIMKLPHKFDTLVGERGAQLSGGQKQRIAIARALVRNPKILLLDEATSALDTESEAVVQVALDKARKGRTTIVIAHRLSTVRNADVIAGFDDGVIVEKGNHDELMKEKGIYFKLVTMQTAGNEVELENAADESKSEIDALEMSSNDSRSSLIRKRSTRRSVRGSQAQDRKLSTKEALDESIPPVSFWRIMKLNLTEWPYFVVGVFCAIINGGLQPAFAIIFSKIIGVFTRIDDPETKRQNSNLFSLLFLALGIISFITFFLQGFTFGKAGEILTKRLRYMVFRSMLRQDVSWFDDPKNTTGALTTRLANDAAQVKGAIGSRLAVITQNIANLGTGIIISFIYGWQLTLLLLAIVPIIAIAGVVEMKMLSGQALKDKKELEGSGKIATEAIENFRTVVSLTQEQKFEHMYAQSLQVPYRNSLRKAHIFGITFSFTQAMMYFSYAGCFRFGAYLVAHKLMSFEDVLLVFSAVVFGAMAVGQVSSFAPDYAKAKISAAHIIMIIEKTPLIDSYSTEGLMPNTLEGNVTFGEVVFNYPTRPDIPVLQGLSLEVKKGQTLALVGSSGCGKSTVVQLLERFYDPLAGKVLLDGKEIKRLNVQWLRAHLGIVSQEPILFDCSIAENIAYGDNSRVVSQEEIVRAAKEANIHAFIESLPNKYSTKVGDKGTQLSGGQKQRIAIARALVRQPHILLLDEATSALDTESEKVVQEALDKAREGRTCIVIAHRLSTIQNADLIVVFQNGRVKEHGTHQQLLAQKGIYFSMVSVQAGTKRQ
Experimental: page 9: Brain plasma concentration ratio (Kp) was calculated by dividing brain concentration by plasma concentration for each animal. Unbound brain to unbound plasma concentration ratio (Kp,uu) is calculated using the following formula: Kp,uu = (Brain ng/g x brain fu)/(plasma ng/ml x plasma fu). Pharmacokinetic profiles in rats following oral single escalating doses Single escalating oral dosing in Sprague-Dawley rats was performed at Frontage Laboratories according to their non-GLP Standard Operating Procedure and IACUC protocols. In short, compounds were formulated in 10% Tween 80 in water and dosed at 10 mg/kg. At different times, arterial blood was collected from a femoral artery catheter, and compound concentration was determined in plasma by LC-MS/MS following their non-GLP protocol. PK parameters were determined using Phoenix WinNonlin software (version 6.3). In-vitro determination of blood-brain barrier penetration potential Blood-brain barrier penetration was determined using MDR1-MDCK cell monolayers by Absorption Systems, following their protocol. In short, compounds were incubated […] final concentration on one side of the cell monolayer for 2 hours. Compounds concentration on either side of the monolayer was determined by LC-MS/MS and apparent permeability and efflux ratio were determined as described in Wang, Q. et al.1 Behavioral Manifestations of Seizure Activity To evaluate induction of behavioral manifestation of seizure activity, C57Bl/6 mice received administration of vehicle or 100 mg/kg M1 PAM 5. Compound was formulated in 30% Captisol (pH 7.0) at a concentration of 10 mg/mL and injected i.p. at 10 ml/kg (n = 4). Animals were monitored continuously and scored for behavioral manifestations of seizure activity at 5, 15, 30 min, and 1 h. Behavioral manifestations of seizures were scored using a modified Racine scoring system. Briefly, a score of 0 represents no behavior alterations; score 1, immobility, mouth and facial movements, or facial clonus; score 2, head nodding, tail extension; score 3, forelimb clonus, repetitive movements; score 4, rearing and tonic clonic seizure; and score 5, continuous rearing and falling, severe generalized tonic clonic seizure. Novel Object Recognition Task S9

[1] = Hepatocyte metabolite identification (dog); format: in vitro ADME; settings: dog hepatocytes, 4 h incubation
Experimental: (§1) Prior to full characterization of deuterated analogues 3 and 5, they were incubated in rat, dog, monkey, and human hepatocytes, along with 1, to determine the amount of parent remaining, as well as the degree of undesired oxidative metabolites 2, 4, and 6 (Figure 2). […] For the gem-dideutero congener 3, metabolic stability was improved in vitro. […] Thus, in hepatocytes in vitro, the kinetic isotope effect engendered greater metabolic stability of the labile hot spot on the lactam. It remained to be seen if this effect would translate in vivo, but we first had to assess the impact of the deuterated analogues on molecular pharmacology, in vitro DMPK, standard low-dose in vivo DMPK and, if warranted, in vivo efficacy in a rat novel object recognition (NOR) behavioral assay.

[2] = Hepatocyte metabolite identification (monkey); format: in vitro ADME; settings: monkey hepatocytes, 4 h incubation
Experimental: as §1

[3] = PAM mode, read-out: rM1 PAM EC50
[4] = agonist mode, read-out: rM1 Agonist EC50

In the case of `[2H]C1([2H])c2ncccc2C(=O)N1Cc1c(F)cc(-c2cccc3nn(C)cc23)cc1F` [compound 3], the “rM1 PAM AChmax (%)” value (rM1) was 85%, the pEC50 (rM1; [3]) was 6.44 and the pEC50 (rM1; [4]) was under 4.52. For the same compound, the pIC50 (CYP 1A2) was under 4.52, the Papp at 2 h (P-gp (MDR1)) was 41.2 ×10⁻⁶ cm/s and the efflux ratio at 2 h (P-gp (MDR1)) was 1.55. The “% Total Peak Area, parent remaining” value [1] was 91.9% and the “% Total Peak Area, parent remaining” value [2] was 58.5%.

For `Cn1cc2c(-c3cc(F)c(CN4Cc5ncccc5C4=O)c(F)c3)cccc2n1` [compound 1], the “rM1 PAM AChmax (%)” value (rM1) was 79%, the pEC50 (rM1; [3]) was 6.67 and the pEC50 (rM1; [4]) was under 4.52. For the same compound, the pIC50 (CYP 1A2) was 4.85, the Papp at 2 h (P-gp (MDR1)) was 31.1 ×10⁻⁶ cm/s and the efflux ratio at 2 h (P-gp (MDR1)) was 1.8. The “% Total Peak Area, parent remaining” value [1] was 71.7% and the “% Total Peak Area, parent remaining” value [2] was 25.8%.

With `[2H]C1([2H])c2ncccc2C(=O)N1Cc1c(F)cc(-c2cccc3nn(C([2H])([2H])[2H])cc23)cc1F` [compound 5] the “rM1 PAM AChmax (%)” value (rM1) was 82%, the pEC50 (rM1; [3]) was 6.60 and the pEC50 (rM1; [4]) was under 4.52. The pIC50 (CYP 1A2) was under 4.52, the Papp at 2 h (P-gp (MDR1)) was 34.2 ×10⁻⁶ cm/s and the efflux ratio at 2 h (P-gp (MDR1)) was 1.3. For the same compound, the “% Total Peak Area, parent remaining” value [1] was 87.8% and the “% Total Peak Area, parent remaining” value [2] was 60.5%.
